How the values were obtained:
Conditions in all cases: incubation time: 72 h
MCF-10A [1] = experiment: normalised response (% of control), CellTox Green; higher = less cell death (100 = DMSO, 0 = benzethonium chloride kill control)
Procedure, shortened: (§1)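 The table gives the normalised signal for a single concentration in each entry. Breast cancer cell lines were seeded (20 µl suspension) into 384-well plates holding compound at 5 concentrations in 10-fold steps over a compound-specific 10,000-fold range and incubated 72 h, then read for CellTox Green fluorescence (485/520 nm) and CellTiter-Glo luminescence. Normalisation on each plate used 0.1 % DMSO (100) and a positive kill control (0).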

MFM-223 [2] = experiment: as above
Procedure, shortened: as §1

CAL-85-1 [3] = experiment: as above
Procedure, shortened: as §1

BT-474 [4] = experiment: as above
Procedure, shortened: as §1

CAL-51 [5] = experiment: as above
Procedure, shortened: as §1

CAL-120 [6] = experiment: as above
Procedure, shortened: as §1

MDA-MB-436 [7] = experiment: as above
Procedure, shortened: as §1

HCC1599 [8] = experiment: as above
Procedure, shortened: as §1

HCC1143 [9] = experiment: as above
Procedure, shortened: as §1

Hs578T [10] = experiment: as above
Procedure, shortened: as §1

MDA-MB-231 [11] = experiment: as above
Procedure, shortened: as §1

HCC1937 = experiment: as above
Procedure, shortened: as §1

MDA-MB-453 [12] = experiment: as above
Procedure, shortened: as §1

BT-549 [13] = experiment: as above
Procedure, shortened: as §1

HDQ-P1 [14] = experiment: as above
Procedure, shortened: as §1

CAL-148 = experiment: normalised response (% of control), CellTiter-Glo; higher = more viable cells (100 = DMSO, 0 = benzethonium chloride kill control)
Procedure, shortened: as §1

MCF-10A [15] = experiment: as above
Procedure, shortened: as §1

MFM-223 [16] = experiment: as above
Procedure, shortened: as §1

CAL-85-1 [17] = experiment: as above
Procedure, shortened: as §1

BT-474 [18] = experiment: as above
Procedure, shortened: as §1

CAL-51 [19] = experiment: as above
Procedure, shortened: as §1

CAL-120 [20] = experiment: as above
Procedure, shortened: as §1

MDA-MB-468 = experiment: as above
Procedure, shortened: as §1

MDA-MB-436 [21] = experiment: as above
Procedure, shortened: as §1

HCC1599 [22] = experiment: as above
Procedure, shortened: as §1

HCC1143 [23] = experiment: as above
Procedure, shortened: as §1

Hs578T [24] = experiment: as above
Procedure, shortened: as §1

MDA-MB-231 [25] = experiment: as above
Procedure, shortened: as §1

SK-BR-3 = experiment: as above
Procedure, shortened: as §1

MDA-MB-453 [26] = experiment: as above
Procedure, shortened: as §1

BT-549 [27] = experiment: as above
Procedure, shortened: as §1

HDQ-P1 [28] = experiment: as above
Procedure, shortened: as §1

| Compound | normalised response (MCF-10A [1]) [%] | normalised response (MFM-223 [2]) [%] | normalised response (CAL-85-1 [3]) [%] | normalised response (BT-474 [4]) [%] | normalised response (CAL-51 [5]) [%] | normalised response (CAL-120 [6]) [%] | normalised response (MDA-MB-436 [7]) [%] | normalised response (HCC1599 [8]) [%] | normalised response (HCC1143 [9]) [%] | normalised response (Hs578T [10]) [%] | normalised response (MDA-MB-231 [11]) [%] | normalised response (HCC1937) [%] | normalised response (MDA-MB-453 [12]) [%] | normalised response (BT-549 [13]) [%] | normalised response (HDQ-P1 [14]) [%] | normalised response (CAL-148) [%] | normalised response (MCF-10A [15]) [%] | normalised response (MFM-223 [16]) [%] | normalised response (CAL-85-1 [17]) [%] | normalised response (BT-474 [18]) [%] | normalised response (CAL-51 [19]) [%] | normalised response (CAL-120 [20]) [%] | normalised response (MDA-MB-468) [%] | normalised response (MDA-MB-436 [21]) [%] | normalised response (HCC1599 [22]) [%] | normalised response (HCC1143 [23]) [%] | normalised response (Hs578T [24]) [%] | normalised response (MDA-MB-231 [25]) [%] | normalised response (SK-BR-3) [%] | normalised response (MDA-MB-453 [26]) [%] | normalised response (BT-549 [27]) [%] | normalised response (HDQ-P1 [28]) [%] |
| --- | --- | --- | --- | --- | --- | --- | --- | --- | --- | --- | --- | --- | --- | --- | --- | --- | --- | --- | --- | --- | --- | --- | --- | --- | --- | --- | --- | --- | --- | --- | --- | --- |
| NC1(c2ccc(-c3nc4ccn5c(=O)[nH]nc5c4cc3-c3ccccc3)cc2)CCC1 [MK-2206] (100 nM) | 105 | 92 | 102 | 103 | 117 | 101 | 107 | 108 | 97.8 | 116 | 110 | 63.5 | 105 | 133 | 108 | 97 | 107 | 98.5 | 109 | 97.4 | 95.1 | 99.8 | 94.6 | 108 | 104 | 98.2 | 97.2 | 103 | 83.5 | 76.5 | 90.3 | 99.2 |
| C[C@]12C=CC(=O)C=C1CC[C@@H]1[C@@H]2C(=O)C[C@@]2(C)[C@H]1CC[C@]2(O)C(=O)CO [Prednisone] (1000 nM) | 98.8 | 84.2 | 103 | 103 | 112 | 102 | 101 | 97.7 | 105 | 105 | 116 | 113 | 100 | 120 | 94.4 | 105 | 108 | 101 | 92.9 | 104 | 120 | 102 | 103 | 104 | 113 | 102 | 110 | 103 | 103 | 106 | 95.4 | 100 |
| CN1CCN(c2nc(C3=C(c4c[nH]c5ccccc45)C(=O)NC3=O)c3ccccc3n2)CC1 [Sotrastaurin] (1000 nM) | 108 | 102 | 106 | 98.8 | 105 | 102 | 102 | 92.9 | 58.9 | 105 | 108 | 108 | 105 | 111 | 66.9 | 88 | 95.3 | 91.6 | 121 | 105 | 122 | 93.7 | 91.6 | 102 | 115 | 92.5 | 101 | 108 | 90.9 | 102 | 101 | 93.5 |
| Cn1nnc2c(C(N)=O)ncn2c1=O [Temozolomide] (1000 nM) | 89.5 | 52 | 108 | 96.5 | 87.6 | 103 | 80.5 | 94.6 | 50.4 | 94.3 | 109 | 96.6 | 105 | 108 | 100 | 97.6 | 104 | 94.8 | 99.4 | 95.4 | 76.4 | 99.3 | 91.8 | 104 | 116 | 98.1 | 91.7 | 93.3 | 92 | 100 | 101 | 98.8 |

Source: the supplement of paper PMC4862054
